Entries after “also recorded” stand apart in the source; their conditions may differ. Structures can show the parent of a compound that is named as a salt. Where two headings read alike, the source gives them in different places.

Data on seven compounds can be found in article PMC10535379 (Viruses, 2023).

Data set [1] concerns FMDV serotype A (NP05). Nature of the data set: microbe, parasite or virus in culture. Type of data set: cell-based, foot-and-mouth disease virus. The following applies: for EC50: Foot-and-mouth disease virus, BHK-21, read-out: EC50 Co-Treatment.
Data set [2] relates to FMDV serotype A (NP05).
The test system of data set [3] is FMDV serotype A (NP05). As to the kind of experiment: microbe, parasite or virus in culture. Type of data set: cell-based, foot-and-mouth disease virus. The following applies: for EC50: Foot-and-mouth disease virus, BHK-21, read-out: EC50 Pre-Treatment.
The next data set in a line: in vitro. The note with it: hamster.
The subject of data set [4] is Schizosaccharomyces pombe. The note with it: cited from earlier work.
The next data set concerns Saccharomyces cerevisiae. The note with it: cited from earlier work.
For data set [5], the system named is FMDV serotype A (NP05). Type of data set: cell-based, foot-and-mouth disease virus. The note with it: for Virucidal effect: 50 µM, 0 min.
The test system of data set [6] is FMDV serotype A (NP05). The data set is classed as cell-based, foot-and-mouth disease virus.
Data set [7] has as its system FMDV serotype A (NP05). Nature of the data set: microbe, parasite or virus in culture. The following applies: Foot-and-mouth disease virus, BHK-21, read-out: EC50 Post Entry.
For another data set, the system named is HEP-2 cells. The following applies: human; cited from earlier work.
The test system of data set [8] is FMDV serotype A (NP05). Type of data set: cell-based, foot-and-mouth disease virus. The source holds these as a separate data set.
A further data set concerns the target carboxypeptidase B. The following applies: cited from earlier work.
The next data set deals with FMDV 3Cpro (Foot-and-mouth disease virus, UniProt P03306). As to the kind of experiment: cell-based.
For the next data set, the system named is BHK-21 cells. The following applies: hamster.
The subject of data set [9] is FMDV serotype A (NP05). As to the kind of experiment: in vitro. The note with it: hamster.
The test system of data set [10] is human respiratory syncytial virus (RSV). The note with it: read-out: IC50 against RSV; cited from earlier work.
Another data set relates to HEK-293T cells. The note with it: human.
The subject of the next data set is FMDV. The note with it: cited from earlier work.
[11] abbreviates: HEK-293T, read-out: Inhibition of FMDV 3Cpro.

Sequence of FMDV 3Cpro (P03306 1650-1862 limits assumed): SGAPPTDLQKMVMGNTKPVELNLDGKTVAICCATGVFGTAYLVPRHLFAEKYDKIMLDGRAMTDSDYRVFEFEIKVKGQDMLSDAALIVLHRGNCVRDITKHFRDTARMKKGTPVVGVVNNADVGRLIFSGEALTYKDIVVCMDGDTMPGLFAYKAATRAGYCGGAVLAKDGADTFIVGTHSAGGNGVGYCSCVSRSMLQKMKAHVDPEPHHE

As for `COc1cc(/C=N/Nc2nc3c([nH]2)c(=O)n(C)c(=O)n3C)ccc1O` [NSC64672, 8-[(2E)-2-[(4-hydroxy-3-methoxyphenyl)methylidene]hydrazinyl]-1,3-dimethyl-7H-purine-2,6-dione], the “EC50 Co-Treatment” value in the data set with FMDV serotype A (NP05) [1] is listed as “I”. Also, the “EC50 Post Entry” value in the data set on FMDV serotype A (NP05) [2] is recorded as “I”. The “EC50 Pre-Treatment” value with FMDV serotype A (NP05) [3] is listed as “I”. Further, in the data set “in vitro”, the CC50 amounted to 130 ± 2.3 µM.
Take `CCN(CC)CCCC(C)NC(=O)c1ccc2c(c1)C(=O)c1ccccc1C2=O` (stereo not shown) [NSC331757, N-[5-(diethylamino)pentan-2-yl]-9,10-dioxoanthracene-2-carboxamide;hydrochloride]: the “EC50 Co-Treatment” value in the data set on FMDV serotype A (NP05) [1] is reported as “I”. For the same compound, the “EC50 Post Entry” value in the data set with FMDV serotype A (NP05) [2] is on record as “I”. The “EC50 Pre-Treatment” value in the data set on FMDV serotype A (NP05) [3] was “I”. In addition, the CC50 in the data set “in vitro” worked out at 62.8 ± 0.87 µM.
Take `N#CC(c1ccccc1)N(CCCCCCN(C(=O)c1ccccc1)C(C#N)c1ccccc1)C(=O)c1ccccc1` (stereo not shown) [NSC681744, N-[6-[benzoyl-[cyano(phenyl)methyl]amino]hexyl]-N-[cyano(phenyl)methyl]benzamide]: the “Inhibition of Schizosaccharomyces pombe” value in data set [4] is reported as “none of them could inhibit”. The EC50 with FMDV serotype A (NP05) [1] was 4.83 ± 0.08 µM. Also, the “Inhibition of Saccharomyces cerevisiae” value in the data set with Saccharomyces cerevisiae was “none of them could inhibit”. In the data set with FMDV serotype A (NP05) [5], the Virucidal effect result is on record as “good inhibition at 0 min”. Moreover, the “EC50 Pre-Treatment” value with FMDV serotype A (NP05) [3] was “I”. Also, the CC50 in the data set “in vitro” was determined as 124 ± 0.5 µM.
For the compound `Oc1ccccc1-c1nc2c3ccccc3c3ccccc3c2[nH]1` [NSC332670, 6-(1,3-Dihydrophenanthro[9,10-d]imidazol-2-ylidene)cyclohexa-2,4-dien-1-one], in the data set on FMDV serotype A (NP05) [6], the Inhibition effect entry is “reduced; also recorded: completely lost”. Also, in the data set with FMDV serotype A (NP05) [6], the Viral inhibition entry is reported as “great inhibition”. Besides, the EC50 with FMDV serotype A (NP05) [7] was determined as 5.92 ± 0.2 µM; with FMDV serotype A (NP05) [1], 2.04 ± 0.02 µM; in the data set with FMDV serotype A (NP05) [3], 7.18 ± 0.98 µM. The figures for the CC50 in the data set on HEP-2 cells and in “in vitro” were 15.3 µM and 65.82 ± 0.06 µM, respectively. For the same compound, the “Viral load (viral copy number) reduction” value with FMDV serotype A (NP05) [8] was “reduce the viral loads in a dose-dependent manner”. Further, the half-inhibitory concentration (IC50) is 1550 µM on carboxypeptidase B, 4.21 µM on FMDV 3Cpro and 11 µM in data set [10]. Also, the inhibition at 10 µM on FMDV 3Cpro (setting [11]) is around 90%. The inhibition at 40 µM on FMDV 3Cpro (setting [11]) came to 100%. For the same compound, the “Reduction of viral titers” value in the data set with FMDV serotype A (NP05) [5] is on record as 1.17–2.27 log TCID50/mL. Besides, the “MNTD90 (maximum non-toxic dose)” value with BHK-21 cells and in the data set on HEK-293T cells was 50 µM each time. In addition, the selectivity ratio in the data set with FMDV serotype A (NP05) [9] turned out to be 11.1.
`Cc1ccc([N+](=O)[O-])cc1NC(=O)c1cccc([N+](=O)[O-])c1O` [NSC79451, 2-Hydroxy-N-(2-methyl-5-nitrophenyl)-3-nitrobenzamide]: in [4], the “Inhibition of Schizosaccharomyces pombe” value is recorded as “none of them could inhibit”. Moreover, the EC50 in the data set on FMDV serotype A (NP05) [1] turned out to be 1.56 ± 0.03 µM. In addition, the “Inhibition of Saccharomyces cerevisiae” value with Saccharomyces cerevisiae is given as “none of them could inhibit”. Besides, the Virucidal effect result with FMDV serotype A (NP05) [5] is recorded as “good inhibition at 0 min”. In the data set on FMDV serotype A (NP05) [3], the “EC50 Pre-Treatment” value is on record as “I”. Besides, the CC50 in “in vitro” turned out to be 32.79 ± 0.3 µM.
For `N#Cc1cc(-c2ccccc2)[nH]c1-c1nccc2ccccc12` [NSC116640, 2-isoquinolin-1-yl-5-phenyl-1H-pyrrole-3-carbonitrile], in the data set with FMDV serotype A (NP05) [6], the Number of viruses entry is given as “slightly increased”. The “Virus yield (% of viral copy numbers)” value in the data set with FMDV serotype A (NP05) [6] is on record as 0–10%. Also, the “Potent activity in StopGo luciferase anti-FMDV screen” value with FMDV is given as 28.18 µM. The EC50 in the data set with FMDV serotype A (NP05) [7] is 2.88 ± 0.17 µM; in the data set on FMDV serotype A (NP05) [1], 5.74 ± 0.23 µM; in the data set on FMDV serotype A (NP05) [3], 7.27 ± 0.86 µM. Also, the “Viral load (viral copy number) reduction” value in the data set with FMDV serotype A (NP05) [8] was “reduce the viral loads in a dose-dependent manner”. In addition, the “Concentration required for 80% inhibition of FMDV 3Cpro” value at FMDV 3Cpro is “more than 40 µM”. For the same compound, on FMDV 3Cpro, half-maximal inhibition (IC50) was put at 10.8 µM. In the data set on FMDV serotype A (NP05) [5], the “Reduction of viral titers” value is 1.00–2.27 log TCID50/mL. Moreover, the “MNTD90 (maximum non-toxic dose)” value in the data set with BHK-21 cells and in the data set with HEK-293T cells was 50 µM throughout. For the same compound, the selectivity ratio in the data set on FMDV serotype A (NP05) [9] came out at 73.2. In the data set “in vitro”, this compound returned a CC50 of 210.7 ± 0.17 µM.
Regarding `O=[N+]([O-])c1ccccc1/C=C/C=N/N=C/c1ccccc1O` [NSC119805, 2-[(E)-[(E)-[(E)-3-(2-nitrophenyl)prop-2-enylidene]hydrazinylidene]methyl]phenol], the “EC50 Co-Treatment” value in the data set on FMDV serotype A (NP05) [1] was “I”. Further, the “EC50 Post Entry” value in the data set on FMDV serotype A (NP05) [2] was “I”. Also, the “EC50 Pre-Treatment” value in the data set on FMDV serotype A (NP05) [3] is on record as “I”. The same compound showed a CC50 in “in vitro” of 82.45 ± 0.4 µM.
